Results: patent publication US8563542B2 (Cyclacel Limited, priority 2007, dated 2013)
Where two headings read alike, the source gives them in different places.

Key:
[1] = target: PLK2 (Homo sapiens, UniProt Q9NYY3); experiment: PLK2 inhibition (PLK selectivity); type: biochemical; settings: relative selectivity
[2] = target: PLK3 (Homo sapiens, UniProt Q9H4B4); experiment: PLK3 inhibition (PLK selectivity); type: biochemical; settings: relative selectivity
[3] = target: PLK1 (Homo sapiens, UniProt P53350); experiment: PLK1 protein kinase assay (CDC25C phosphorylation, [γ-32P]-ATP); type: biochemical; settings: read-out: PLK1 IC50
PLK1, sequence (P53350 whole entry): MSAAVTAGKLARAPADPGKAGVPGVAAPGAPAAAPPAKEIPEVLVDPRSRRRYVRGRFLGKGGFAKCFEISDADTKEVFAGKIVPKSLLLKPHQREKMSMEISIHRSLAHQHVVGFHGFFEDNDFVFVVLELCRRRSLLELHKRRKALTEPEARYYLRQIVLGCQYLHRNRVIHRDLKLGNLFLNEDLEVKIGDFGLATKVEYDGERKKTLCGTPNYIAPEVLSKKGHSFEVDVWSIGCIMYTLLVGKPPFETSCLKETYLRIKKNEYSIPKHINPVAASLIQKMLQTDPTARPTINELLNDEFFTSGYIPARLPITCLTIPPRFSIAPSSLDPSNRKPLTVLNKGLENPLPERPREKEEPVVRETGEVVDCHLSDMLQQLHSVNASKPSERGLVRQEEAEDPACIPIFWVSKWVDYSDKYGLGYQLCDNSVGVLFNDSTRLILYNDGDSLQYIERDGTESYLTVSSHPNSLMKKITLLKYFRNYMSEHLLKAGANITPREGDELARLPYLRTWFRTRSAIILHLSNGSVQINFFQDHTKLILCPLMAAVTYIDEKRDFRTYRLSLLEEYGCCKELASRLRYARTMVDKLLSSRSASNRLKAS

[4] = system: A2780 and A2780/ADR cells; experiment: Cell viability assay (Alamar Blue, 72 h), parental/MDR pair, asymmetry ratio; type: cell-based, human; settings: paired parental and MDR tumour cell lines; Example 9, FIG. 3
From the text: In vitro cell viability assays have been used to measure the effect of drug accumulation in paired parental and drug resistant tumour cell lines. The pairs used are the human ovarian carcinoma A2780 line with its MDR counterpart A2780/ADR and the human uterine sarcoma MES-SA line with its MDR counterpart MES-SA/Dx5 [Wesolowska O., et al. (2005) Anticancer Res., 25, 383-389].
Method: Cultivated human tumour cells of the ovarian cell line A2780 and its doxorubicin-resistant pair, A2780/ADR and the uterine cell line MES-SA and its doxorubicin-resistant pair, MES-SA/DX5 were seeded at 3000 cells per well in Nunc 96-well tissue culture plates, 100 μl per well in DMEM media containing 10% foetal calf serum and penicillin/streptomycin. […] The plates were then read at 544/595 nm.
The amount of Alamar Blue reagent reacted represents the metabolic activity of the cells. […] The values were calculated from the average of three individual measurements with blank correction (medium-only control).
The assay was performed on the Biomek FxP, automation platform from Beckman Coulter. The plates were read on the Paradigm plate reader supplied by Beckman Coulter. Asymmetry ratios were calculated as the IC50 value of the compound in the drug resistant cells divided by the IC50 value in the parental cells. […]

[5] = Pharmacokinetics in fasted conscious CD-1 mice (iv and oral); type: in vivo; settings: 1 mg/kg iv, 5-10 mg/kg oral
Procedure: Preliminary investigations of the pharmacokinetics of selected compounds were carried out in fasted conscious CD-1 mice (25-30 g). Compounds were dosed as 1 mg/kg by intravenous administration or 5-10 mg/kg by oral route. Twenty one male mice per administration route (n=3 mice per time point) received dose solution by single bolus injection in the tail vein or by oral gavage. Blood samples were collected by cardiac puncture at 5, 15, 30, 60, 120, 240 and 360 min following iv administration and at 30, 60, 120, 240, 360, 480 and 1440 min following oral administration. Blood samples were collected into tubes containing the anti-coagulant lithium heparin, mixed and placed promptly on crushed ice. Plasma was derived from whole blood by centrifugation, frozen and stored at −80° C. prior to analysis. Plasma concentrations were determined by liquid chromatography-tandem mass spectrometry in electrospray positive mode (ESI LC/MS/MS) using calibration curves prepared in the appropriate matrix. The lower level of quantification (LLOQ) in all cases was ca. 5 ng/mL. Plasma concentration-time data was processed using the computer program WinNonLin version 5.2 from which areas under the plasma concentration-time curve (AUCall) were calculated by non-compartmental analysis using Model 201 (IV-bolus Input) or Model 200 (Extravascular Input).
FIG. 1 plots the area under the curve (AUC) for plasma concentration vs time for each compound tested. The dosing vehicle across these experiments remained constant (intravenous=citrate buffer pH 3, 1 mL/kg; oral=DMA/PEG400/10 […] Tartrate buffer, pH 4 (1:3:6), 5 ml/kg). FIG. 2 represents the same data in the form of oral bioavailability (% F) for each compound.

[6] = target: T1, AA (Homo sapiens, UniProt O14965); experiment: AA IC50 (Table 1; no method given); type: biochemical; settings: Table 2, AurA IC50; class symbols; read-out: AurA IC50
T1 sequence (O14965 1-403): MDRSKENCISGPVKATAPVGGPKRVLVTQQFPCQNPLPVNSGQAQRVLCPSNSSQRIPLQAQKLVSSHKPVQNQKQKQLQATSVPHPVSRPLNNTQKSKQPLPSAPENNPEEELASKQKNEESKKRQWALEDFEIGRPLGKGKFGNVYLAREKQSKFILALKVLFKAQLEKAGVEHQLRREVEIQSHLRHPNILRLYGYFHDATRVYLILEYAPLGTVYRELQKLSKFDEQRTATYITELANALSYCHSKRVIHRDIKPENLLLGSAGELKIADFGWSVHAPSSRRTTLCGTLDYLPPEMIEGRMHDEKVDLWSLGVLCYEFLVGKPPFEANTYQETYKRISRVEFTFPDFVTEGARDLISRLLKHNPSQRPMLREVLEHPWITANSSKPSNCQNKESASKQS

[7] = Table 2, PLK1 IC50, class symbols

PLK3, sequence (Q9H4B4 whole entry): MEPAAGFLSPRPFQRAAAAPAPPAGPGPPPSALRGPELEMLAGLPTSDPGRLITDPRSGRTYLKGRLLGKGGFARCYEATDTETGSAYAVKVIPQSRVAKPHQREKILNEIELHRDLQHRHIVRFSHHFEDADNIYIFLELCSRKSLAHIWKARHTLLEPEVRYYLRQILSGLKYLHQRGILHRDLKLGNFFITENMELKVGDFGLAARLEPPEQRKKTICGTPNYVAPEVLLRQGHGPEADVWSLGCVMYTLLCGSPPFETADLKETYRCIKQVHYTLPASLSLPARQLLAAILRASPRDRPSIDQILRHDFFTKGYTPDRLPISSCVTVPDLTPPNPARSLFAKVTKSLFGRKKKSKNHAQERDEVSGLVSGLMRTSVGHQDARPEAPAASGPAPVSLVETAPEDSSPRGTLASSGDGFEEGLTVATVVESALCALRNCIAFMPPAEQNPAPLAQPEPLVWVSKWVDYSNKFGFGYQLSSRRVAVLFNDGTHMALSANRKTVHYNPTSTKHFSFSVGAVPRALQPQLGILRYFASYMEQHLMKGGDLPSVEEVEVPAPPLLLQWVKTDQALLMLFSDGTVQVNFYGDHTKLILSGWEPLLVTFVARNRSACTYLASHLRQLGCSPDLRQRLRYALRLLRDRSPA
PLK2, sequence (Q9NYY3 whole entry): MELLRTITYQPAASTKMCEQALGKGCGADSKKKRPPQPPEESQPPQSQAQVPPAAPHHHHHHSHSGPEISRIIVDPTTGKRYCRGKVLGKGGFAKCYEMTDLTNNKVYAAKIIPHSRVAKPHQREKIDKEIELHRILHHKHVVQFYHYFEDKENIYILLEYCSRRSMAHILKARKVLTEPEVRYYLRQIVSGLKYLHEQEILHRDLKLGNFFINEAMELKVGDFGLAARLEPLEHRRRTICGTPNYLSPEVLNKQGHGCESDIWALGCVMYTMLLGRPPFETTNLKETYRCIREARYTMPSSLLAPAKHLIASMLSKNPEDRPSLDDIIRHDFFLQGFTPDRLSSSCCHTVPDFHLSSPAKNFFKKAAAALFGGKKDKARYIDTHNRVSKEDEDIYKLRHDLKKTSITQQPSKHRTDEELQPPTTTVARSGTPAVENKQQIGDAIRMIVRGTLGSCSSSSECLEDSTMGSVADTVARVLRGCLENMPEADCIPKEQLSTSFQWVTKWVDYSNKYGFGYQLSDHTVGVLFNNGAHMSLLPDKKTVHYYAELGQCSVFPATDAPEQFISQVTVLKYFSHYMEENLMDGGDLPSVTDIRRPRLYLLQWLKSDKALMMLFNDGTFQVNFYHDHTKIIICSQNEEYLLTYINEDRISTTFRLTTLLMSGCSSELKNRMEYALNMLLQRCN

| SMILES | IC50 [3, 7] | IC50 [6] | also measured |
| --- | --- | --- | --- |
| COc1cc(C(=O)NC2CN3CCC2CC3)ccc1Nc1ncc2c(n1)N(C1CCCC1)CC1(CCC1)C(=O)N2C (racemic) [Compound 218, (±)-4-(9′-cyclopentyl-5′-methyl-6′-oxo-5′,6′,8′,9′-tetrahydrospiro[cyclobutane-1,7′-pyrimido[4,5-b][1,4]diazepine]-2′-ylamino)-3-methoxy-N-(quinuclidin-3-yl)benzamide] | < 100 nM | – | Selectivity for PLK1 versus PLK2 compared to compound [I-4] of WO 07/095188 [1]: 7 fold; Selectivity for PLK1 versus PLK2 compared to compound [I-64] of WO 07/095188 [1]: twice; Selectivity for PLK1 versus PLK2 compared to compound [I-76] of WO 07/095188 [1]: ~6 fold; Selectivity for PLK1 versus PLK3 compared to compound [I-4] of WO 07/095188 [2]: 5 fold; Selectivity for PLK1 versus PLK3 compared to compound [I-64] of WO 07/095188 [2]: 5 fold; Selectivity for PLK1 versus PLK3 compared to compound [I-76] of WO 07/095188 [2]: ~12 fold; IC50 ([3]; Table 3): < 100 nM; IC50 ([3]; Table 4): < 100 nM |
| COc1cc(C(=O)N[C@H]2CC[C@H](N3CCN(CC4CC4)CC3)CC2)ccc1Nc1ncc2c(n1)N(C1CCCC1)CC(C)(C)C(=O)N2C [Compound 372, 4-(9-cyclopentyl-5,7,7-trimethyl-6-oxo-6,7,8,9-tetrahydro-5H-pyrimido[4,5-b][1,4]diazepin-2-ylamino)-N-((trans)-4-(4-(cyclopropylmethyl)piperazin-1-yl)cyclohexyl)-3-methoxybenzamide] | – | – | Cellular efflux (MDR/parental cell asymmetry in cell viability assays) [4]: low cellular efflux; IC50 ([3]; Table 3): < 100 nM |
| COc1cc(C(=O)N[C@H]2CC[C@H](N3CCN(CC4CC4)CC3)CC2)ccc1Nc1ncc2c(n1)N(C1CCCC1)CC1(CC1)C(=O)N2C [H] | – | – | Oral bioavailability (% F) compared to compounds A-G [5]: markedly superior; Systemic exposure (plasma AUC) compared to compounds A-G [5]: markedly superior |
| COc1cc(C(=O)N[C@H]2CC[C@H](N3CCN(CC4CC4)CC3)CC2)ccc1Nc1ncc2c(n1)N(C1CCCC1)CCC(=O)N2C [I] | – | – | Oral bioavailability (% F) compared to compounds A-G [5]: markedly superior; Systemic exposure (plasma AUC) compared to compounds A-G [5]: markedly superior |
| Cc1ccc(N2CCC(=O)N(C)c3cnc(Nc4ccc(NC(=O)C5CC5)c(C)c4)nc32)cc1 [compound 291, Cyclopropanecarboxylic acid [2-methyl-4-(5-methyl-6-oxo-9-p-tolyl-6,7,8,9-tetrahydro-5H-pyrimido[4,5-b][1,4]diazepin-2-ylamino)-phenyl]-amide] | < 10000 nM | < 100 nM | – |
| CN1C(=O)CCN(C2CCCC2)c2nc(Nc3ccc4sc(C(=O)O)cc4c3)ncc21 [compound 292, 5-(9-Cyclopentyl-5-methyl-6-oxo-6,7,8,9-tetrahydro-5H-pyrimido[4,5-b][1,4]diazepin-2-ylamino)-benzo[b]thiophene-2-carboxylic acid] | < 1000 nM | < 100 nM | – |
| CN1C(=O)CCN(C2CCCC2)c2nc(Nc3ccc(C(=O)N4CCOCC4)cc3)ncc21 [compound 293, 9-Cyclopentyl-5-methyl-2-[4-(morpholine-4-carbonyl)-phenylamino]-5,7,8,9-tetrahydro-pyrimido[4,5-b][1,4]diazepin-6-one] | < 10000 nM | < 100 nM | – |
| CN1C(=O)CCN(C2CCCC2)c2nc(Nc3ccc4c(c3)OCC(=O)N4)ncc21 [compound 294, 9-Cyclopentyl-5-methyl-2-(3-oxo-3,4-dihydro-2H-benzo[1,4]oxazin-7-ylamino)-5,7,8,9-tetrahydro-pyrimido[4,5-b][1,4]diazepin-6-one] | < 1000 nM | < 1000 nM | – |
| CN1C(=O)CCN(C2CCCC2)c2nc(Nc3ccc4c(c3)NC(=O)CO4)ncc21 [compound 295, 9-Cyclopentyl-5-methyl-2-(3-oxo-3,4-dihydro-2H-benzo[1,4]oxazin-6-ylamino)-5,7,8,9-tetrahydro-pyrimido[4,5-13][1,4]diazepin-6-one] | < 10000 nM | < 100 nM | – |
| CN1C(=O)CCN(C2CCCC2)c2nc(Nc3ccc4sc(C(=O)O)cc4c3)ncc21 [compound 296] | < 1000 nM | < 100 nM | – |
| CN1C(=O)CCN(C2CCCC2)c2nc(Nc3ccc(C(=O)N4CCOCC4)cc3)ncc21 [compound 297, 9-Cyclopentyl-5-methyl-2-[4-(morpholine-4-carbonyl)-phenylamino]-5,7,8,9-tetrahydro-pyrimido[4,5-b][1,4]diazepin-6-one] | < 10000 nM | < 100 nM | – |
| CN1C(=O)CCN(C2CCCC2)c2nc(Nc3ccc4c(c3)OCC(=O)N4)ncc21 [compound 298, 9-Cyclopentyl-5-methyl-2-(3-oxo-3,4-dihydro-2H-benzo[1,4]oxazin-7-ylamino)-5,7,8,9-tetrahydro-pyrimido[4,5-b][1,4]diazepin-6-one] | < 1000 nM | < 1000 nM | – |
| CN1C(=O)CCN(C2CCCC2)c2nc(Nc3ccc4c(c3)NC(=O)CO4)ncc21 [compound 299, 9-Cyclopentyl-5-methyl-2-(3-oxo-3,4-dihydro-2H-benzo[1,4]oxazin-6-ylarnino)-5,7,8,9-tetrahydro-pyrimido[4,5-b][1,4]diazepin-6-one] | < 10000 nM | < 100 nM | – |
| CN1C(=O)CCN(C2CCCC2)c2nc(Nc3ccc(S(=O)(=O)N(C)C)cc3)ncc21 [compound 300, 4-(9-Cyclopentyl-5-methyl-6-oxo-6,7,8,9-tetrahydro-5H-pyrimido[4,5-b][1,4]diazepin-2-ylamino)-N,N-dimethyl-benzenesulfonamide] | < 10000 nM | < 100 nM | – |
| CC(=O)Nc1ccc(Nc2ncc3c(n2)N(C2CCCC2)CCC(=O)N3C)cc1Cl [compound 324, N-[2-Chloro-4-(9-cyclopentyl-5-methyl-6-oxo-6,7,8,9-tetrahydro-5H-pyrimido[4,5-b][1,4]diazepin-2-ylamino)-phenyl]-acetamide] | < 10000 nM | < 1000 nM | – |
| CN1CCC(NC(=O)c2ccc(Nc3ncc4c(n3)N(C3CCCC3)CC3(CC3)C(=O)N4C)cc2)CC1 [compound 349, 4-(9-Cyclopentyl-5-methyl-6-oxo-6,7,8,9-tetrahydro-5H-spiro[pyrimido[4,5-b][1,4]diazepin-3,1'-cyclopropane]-2-ylamino)-N-(1-methyl-piperidin-4-yl)-benzamide] | < 1000 nM | < 10000 nM | – |
